# Patent US20240174690A1, “ANNULATED 2-AMINO-3-CYANO THIOPHENES AND DERIVATIVES FOR THE TREATMENT OF CANCER” (BOEHRINGER INGELHEIM INTERNATIONAL GMBH, priority 2021, published 2024)
# Tests used:
# SAS cells = experiment: SAS CTG proliferation assay (120 h) (HNSCC, wt amplified); format: cell-based
# Experimental: SAS CTG Proliferation Assay (120 h) (HNSCC, Wt Amplified)
# (§1) SAS cells (JCRB0260) are dispensed into 384-well plates, flat and clear bottom (Greiner, PNr. 781091) at a density of 300 cells per well in 60 μL DMEM:F12 (Gibco 31330-038)+10% Fetal Calf Serum (HyClone, PNr.: SH30084.03) and incubated at 37° C. in a CO2 incubator overnight. The next day, compounds (10 mM stock in DMSO) are added with the ECHO acoustic liquid handler system (Beckman Coulter), including DMSO controls. Plates are incubated for 120 h, and cell viability is measured using CellTiter-Glo luminescent cell viability reagent (Promega product code G7570). Viability (stated as percent of control) is defined as relative luminescence units RLU of each well divided by the RLU of cells in DMSO controls. IC50 values are determined from viability measurements by non-linear regression using a four-parameter model.
# [1] = tested on: KRAS G12D-dependent Ba/F3 cells; experiment: Ba/F3 proliferation assay, KRAS G12D; format: cell-based; conditions: Mus musculus, BaF3, 72 h, AlamarBlue
# Experimental: (§2) Plasmids containing KRASG12 mutants (i.e. […], G12C, G12V) are obtained from GeneScript. To generate KRASG12-dependent Ba/F3 models, Ba/F3 cells are transduced with retroviruses containing vectors that harbor KRASG12 isoforms. Platinum-E cells (Cell Biolabs) are used for retrovirus packaging. Retrovirus is added to Ba/F3 cells. To ensure infection, 4 μg/mL polybrene is added and cells are spinfected. […] Cells with an infection efficiency of 10% to 20% are further cultivated and puromycin selection with 1 μg/mL is initiated. As a control, parental Ba/F3 cells are used to show selection status. Selection is considered successful when parental Ba/F3 cells cultures died. To evaluate the transforming potential of KRASG12 mutations, the growth medium is no longer supplemented with IL-3. Ba/F3 cells harboring the empty vector are used as a control. Approximately ten days before conducting the experiments, puromycin is left out.
# (§3) Compounds are added using an Access Labcyte Workstation with a Labcyte Echo 550 or 555 accoustic dispenser. All treatments are performed in technical duplicates. […] AlamarBlue™ (ThermoFisher), a viability stain, is added and fluorescence measured in the PerkinElmer Envision HTS Multilabel Reader. The raw data are imported into and analyzed with the Boehringer Ingelheim proprietary software MegaLab (curve fitting based on the program PRISM, GraphPad Inc.).
# AsPC-1 cells = experiment: AsPC-1 CTG proliferation assay (120 h) (pancreatic cancer, G12D); format: cell-based; conditions: Homo sapiens, ASPC1
# Experimental: AsPC-1 CTG Proliferation Assay (120 h) (Pancreatic Cancer, G12D)
# The CTG assay is designed to measure quantitatively the proliferation of AsPC-1 cells (ATCC […]), using the CellTiter Glow Assay Kit (Promega G7571). Cells are grown in RPMI medium (ATCC) supplemented with Fetal Calf Serum (Life Technologies, Gibco BRL, Cat. No. 10270-106). On “day 0” 2000 AsPC-1 cells are seeded in 60 μL RPMI ATCC+10% FCS+Penstrep in a 384-well plate, flat and clear bottom (Greiner, PNr. 781091). Cells are then incubated in the plates at 37° C. in a CO2 incubator overnight. On day 1, compounds (10 mM stock in DMSO) are added with the ECHO acoustic liquid handler system (Beckman Coulter), including DMSO controls. Plates are incubated for 120 h, and cell viability is measured using CellTiter-Glo luminescent cell viability reagent (Promega product code G7570). Viability (stated as percent of control) is defined as relative luminescence units RLU of each well divided by the RLU of cells in DMSO controls. IC50 values are determined from viability measurements by non-linear regression using a four-parameter model.
# [2] = tested on: KRAS G12V-dependent Ba/F3 cells; experiment: Ba/F3 proliferation assay, KRAS G12V; format: cell-based; conditions: Mus musculus, BaF3, 72 h, AlamarBlue;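 note: proliferation IC50 in KRAS G12V-dependent Ba/F3 cells read by AlamarBlue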
# Experimental: as §2, §3
# [3] = Caco-2 assay (permeability PappAB, PappBA, efflux ratio); format: in vitro ADME; conditions: human, Caco-2, 10 μM test compound, pH 7.4; for Papp A→B at 90 min, 10 μM: apical to basolateral; for efflux ratio at 90 min, 10 μM: efflux ratio PappBA/PappAB, read-out: Caco ER
# Excerpt: The assay provides information on the potential of a compound to pass the cell membrane, on the extent of oral absorption as well as on whether the compound is actively transported by uptake and/or efflux transporters. Permeability measurements across polarized, confluent Caco-2 cell monolayers grown on permeable filter supports (Corning, catalog #3391) are used. […] The receiver and donor compartments contain 0.25% bovine serum albumine (BSA) in assay buffer. Passive diffusion and/or active transport of compounds across the monolayer is measured in both apical to basolateral (a-b) and basolateral to apical (b-a) direction. a-b permeability (PappAB) represents drug absorption from the intestine into the blood and b-a permeability (PappBA) drug secretion from the blood back into the intestine via both passive permeability as well as active transport mechanisms mediated by efflux and uptake transporters that are expressed on the Caco-2 cells. After a pre-incubation of 25-30 min at 37° C., at predefined time points (0, 30, 60 and 90 min), samples were taken from the receiver and donor compartment, respectively. Concentrations of test compounds in samples were measured by HPLC/MS/MS, samples from the donor compartment were diluted 1:50 (v:v) with assay buffer, samples from receiver compartment were measured without dilution.
# Apparent permeabilities in a-b (PappAB) and b-a (PappBA) directions are calculated according to the formula:
# [formula] • Vrec [mL]: buffer volume in receiver compartment • Cdon [μmol/mL]: concentration of test compound in donor compartment at t=0 • ΔCrec: difference between concentrations of test compound in receiver compartment at start and end of incubation time • Δt: Incubation time • Vrec·ΔCrec/Δt [μmol/min]: Amount of compound transferred to receiver compartment per time • A [cm^2]: filter surface
# Caco-2 efflux ratios (ER) are calculated as the ratio of PappBA/PappAB.
# [4] = tested on: KRAS G12C-dependent Ba/F3 cells; experiment: Ba/F3 proliferation assay, KRAS G12C; format: cell-based; conditions: Mus musculus, BaF3, 72 h, AlamarBlue
# Experimental: as §2, §3
# LOVO cells = experiment: LOVO CTG proliferation assay (120 h) (CRC, G13D); format: cell-based; conditions: Homo sapiens, CTG 120 h
# Experimental: LOVO CTG Proliferation Assay (120 h) (CRC, G13D)
# as §1, with “LOVO cells (ATCC” for “SAS cells (JCRB0260)”, “LOVO cells (ATCC CCL-229) are dispensed” for “SAS cells (JCRB0260) are dispensed”, “density of 1000 cells per” for “density of 300 cells per”, “60 μL DMEM (Sigma D6429)+10% Fetal Calf” for “60 μL DMEM:F12 (Gibco 31330-038)+10% Fetal Calf”
SMILES,IC50 (SAS cells),IC50 [1],IC50 (AsPC-1 cells),IC50 [2],"Papp A→B at 90 min, 10 μM [3]","efflux ratio at 90 min, 10 μM [3]",IC50 [4],IC50 (LOVO cells)
C[C@H](Oc1cc(N2CCNC3(CC3)C2)nc(-c2onc3c2CCC[C@@]32CCCc3sc(N)c(C#N)c32)n1)[C@@H]1CCCN1C [I-5],2040 nM,3 nM,86 nM,253 nM,1.1 ×10⁻⁶ cm/s,29,124 nM,1640 nM
CNC(=O)c1cn(-c2cc(O[C@@H](C)[C@@H]3CCCN3C)nc(-c3noc4c3CCC[C@@]43CCCc4sc(N)c(C#N)c43)n2)nn1 [II-122],889 nM,132 nM,3350 nM,10 nM,7.9 ×10⁻⁶ cm/s,3.2,21 nM,180 nM
C[C@H](Oc1cc(N2CCN(C)CC2)nc(-c2noc3c2CCC[C@@]32CCCc3sc(N)c(C#N)c32)n1)[C@@H]1CCCN1C [II-55],968 nM,63 nM,748 nM,302 nM,3.5 ×10⁻⁶ cm/s,5.4,297 nM,1090 nM
C[C@H](Oc1cc(-c2ccn(C3CC3)n2)nc(-c2noc3c2CCC[C@@]32CCCc3sc(N)c(C#N)c32)n1)[C@@H]1CCCN1C [II-98],30 nM,69 nM,3340 nM,14 nM,–,1.5,23 nM,608 nM
C[C@H](Oc1cc(-c2cnsc2)nc(-c2noc3c2CCC[C@@]32CCCc3sc(N)c(C#N)c32)n1)[C@@H]1CCCN1C [II-111],57 nM,46 nM,2810 nM,4 nM,–,1.5,10 nM,309 nM
CC(=O)N1CC=C(c2cc(O[C@@H](C)[C@@H]3CCCN3C)nc(-c3noc4c3CCC[C@@]43CCCc4sc(N)c(C#N)c43)n2)CC1 [II-81],51 nM,103 nM,4860 nM,13 nM,2 ×10⁻⁶ cm/s,23,49 nM,289 nM
C[C@H](Oc1cc(-c2ccn(C3COC3)n2)nc(-c2noc3c2CCC[C@@]32CCCc3sc(N)c(C#N)c32)n1)[C@@H]1CCCN1C [II-109],20 nM,80 nM,3830 nM,18 nM,3.5 ×10⁻⁶ cm/s,7.4,13 nM,76 nM
COCc1cn(-c2cc(O[C@@H](C)[C@@H]3CCCN3C)nc(-c3noc4c3CCC[C@@]43CCCc4sc(N)c(C#N)c43)n2)nn1 [II-121],560 nM,77 nM,3070 nM,11 nM,6.3 ×10⁻⁶ cm/s,3.7,13 nM,129 nM
Cc1cn(C)nc1-c1cc(O[C@@H](C)[C@@H]2CCCN2C)nc(-c2noc3c2CCC[C@@]32CCCc3sc(N)c(C#N)c32)n1 [II-68],623 nM,77 nM,3240 nM,23 nM,5.8 ×10⁻⁶ cm/s,1.2,56 nM,894 nM
C[C@H](Oc1cc(N2Cc3cnn(C)c3C2)nc(-c2noc3c2CCC[C@@]32CCCc3sc(N)c(C#N)c32)n1)[C@@H]1CCCN1C [II-63],1310 nM,266 nM,3300 nM,49 nM,–,–,114 nM,640 nM
C[C@H](Oc1cc(N2CCN3CCC3C2)nc(-c2onc3c2CCC[C@@]32CCCc3sc(N)c(C#N)c32)n1)[C@@H]1CCCN1C (stereo partly shown) [I-9],20200 nM,92 nM,2850 nM,496 nM,–,–,264 nM,649 nM
C[C@H](Oc1cc(-n2cccc3cnnc2-3)nc(-c2noc3c2CCC[C@@]32CCCc3sc(N)c(C#N)c32)n1)[C@@H]1CCCN1C [II-92],275 nM,120 nM,3920 nM,27 nM,–,–,47 nM,467 nM
C[C@H](Oc1cc(-c2cn(C3COC3)nn2)nc(-c2noc3c2CCC[C@@]32CCCc3sc(N)c(C#N)c32)n1)[C@@H]1CCCN1C [II-100],3180 nM,56 nM,9770 nM,52 nM,–,–,19 nM,83 nM
C[C@H](Oc1cc(-c2ccncc2)nc(-c2noc3c2CCC[C@@]32CCCc3sc(N)c(C#N)c32)n1)[C@@H]1CCCN1C [II-78],318 nM,87 nM,2120 nM,14 nM,–,–,37 nM,175 nM
C[C@H](Oc1cc(C2=CCOCC2)nc(-c2noc3c2CCC[C@@]32CCCc3sc(N)c(C#N)c32)n1)[C@@H]1CCCN1C [II-67],8 nM,38 nM,2800 nM,15 nM,–,–,28 nM,49 nM
Cc1nccn1-c1cc(O[C@@H](C)[C@@H]2CCCN2C)nc(-c2noc3c2CCC[C@@]32CCCc3sc(N)c(C#N)c32)n1 [II-79],2590 nM,45 nM,2830 nM,18 nM,–,–,24 nM,106 nM
C[C@H](Oc1cc(N2CCOC3(COC3)C2)nc(-c2noc3c2CCC[C@@]32CCCc3sc(N)c(C#N)c32)n1)[C@@H]1CCCN1C [II-77],152 nM,28 nM,738 nM,11 nM,–,–,14 nM,39 nM
